Measurements: US20090209605A1, “NEMATICIDAL COMPOSITIONS” (Devgen N.V., priority 2004, published 2009)

How the values were obtained:
Type in all cases: in vivo
[1] = tested on: Meloidogyne incognita; experiment: Root infestation on agar plate: root knot count on potato microplant roots; conditions: 60 μM in agar, galls counted 5 weeks after inoculation, four replicates
Procedure: 9 cm petri dishes were filled with a 15 ml agar. One stem cutting of a potato microplant (Solanum tuberosum cv. Desirée) was placed on top of the agar layer. After 2 to 3 weeks of incubation at 20° C., the root system was sufficiently developed to be inoculated.
The test compounds (see Table 1) were added 2 days before inoculation by way of spreading a 2 ml DMSO-solution with the compound over the agar and allowing the compound to diffuse in the agar during two days at constant temperature of 20° C. During incubation, the plates are protected from light in a dark incubator. The resulting concentration of each compound in each agar plate was 60 μM.
After incubation, approximately 400 axenic juveniles of Meloidogyne incognita species were added to the plate.
The plates were incubated in the dark at a constant temperature of 20° C. and 5 weeks after inoculation the number of galls formed on the roots were determined by counting. Also any toxic effect of the test compounds on the roots was recorded. 8 weeks after inoculation the plates were stored at low temperature.
Each compound was tested in four replicates. Positive controls were treated with different concentrations of Aldicarb, a known nematicide. Negative controls included 5 replicates of double negative controls (no compound, no nematode), 5 replicates of single negative controls (no compound, with nematode) and 5 replicates of DMSO controls (DMSO solution, with nematode).

[2] = tested on: Meloidogyne incognita nematodes; experiment: Pot Assay 1: Meloidogyne infection of potato, egg masses/galls on roots; conditions: potato in pot, week 8 after inoculation
Procedure: 500 ml clay pots were filled with 400 ml of silver sand. One tuber of potato ( Solanum tuberosum cv. Bintje) was planted in the sand. After 2 to 3 weeks incubation, the potato plant was sufficiently developed to be inoculated.
Plants were grown under the usual standard greenhouse conditions at 14° C.-18° C., with 16 hours light and 8 hours dark and 80-90% relative humidity. The pots were watered using individual drippers and fertilizers were added under the form of macro- and micro nutrients according to plant growth requirements. When needed, the plants were sprayed with fungicides and insecticides.
The compounds as described herein were added one day before inoculation. The compounds were dissolved in a 20 ml DMSO-solution and spread over the sand surface. The final concentration is calculated under the assumption that the compound is diffused entirely in the pot. This process occurred during two days at the normal greenhouse conditions described above.
After compound incubation, approximately 1500 juveniles of Meloidogyne incognita nematodes were added to the pots.
The pots were incubated at the described greenhouse conditions until nematode development was completed. At week 8 after inoculation the number of galls formed on the roots was counted after washing off the sandy substrate. Also the effect of the compound on the plant development was recorded.
Every compound was tested in three replicates. Positive control plants were treated with different concentrations of aldicarb, a known nematicide. Negative controls involved 12 replicates of double negative controls (no compound, no nematode), 12 replicates of single negative controls (no compound, no DMSO, with nematode), 24 replicates of DMSO controls (DMSO solution, with nematode).
As assessment of the root development was taken into account.

[3] = tested on: Heterodera nematode; experiment: Pot Assay 3: Heterodera infection of sugar beet, crop vigor and crop height; conditions: infested soil
Excerpt: The soil used in this assay originated from a Heterodera nematode infested sugar plot of which the infestation was confirmed by means of several soil analyses. Each pot was filled up with a soil mixture composed as follows: a) the infested soil was constituted by silt loam soil (about 600 g/pot) mixed with sterile peat (about 600 g/pot) and sterile cork (about 200 g/pot); b) the sterile soil was instead constituted only by sterile peat (1200 g/pot) and sterile cork (200 g/pot).
(§1) Each compound or compound mixture as described herein was tested in 4 different rates with 4 replicates per rate. One pot per replicate was used in which 18 beava sugar beet seeds (variety GEA (KWS)) were sown. After crop germination, the number of plants was reduced to 10 plants. The 4 rates added to the soil of the tested compounds or compound mixtures were 0.05 mg, 0.20 mg, 1 mg and 5 mg. These amounts translate to field application rates respectively as 30, 120, 600 and 3000 g per hectare.
Efficacy of the compounds described herein as nematicide was measured by visual inspection of the crop vigor and the crop height. The crop vigor evaluation is based on a 0-100 scale, where 0 is “no vigor” and 100 is “maximum vigor”. The crop height development is based on a measurement, in cm, per plant, excluding the root system.
Positive control plants were treated with Oxamyl (Vydate 5 G, 5% gr) at a rate of 40 kg fp per ha. Negative controls involved single negative controls (no compound, with nematode infested soil; referenced as “Untreated 1”) and double negative controls (no compound, sterile soil; referenced as “Untreated 2”).

[4] = tested on: sugar beet (variety GEA (KWS)); experiment: Pot Assay 3: phytotoxicity, number of sugar beet plants emerged
Procedure: as §1
Phytotoxicity assessments were carried by assessing any possible effects of the chemicals on the crop, such as chlorosis, yellowing, stunting, in comparison to the untreated control without nematodes.

[5] = tested on: root-knot nematode (Meloidogyne spp); experiment: Nematicide field trial on tomato: root galling and yield; conditions: for Average root galling: 0-5 Lamberti scale
Procedure: (§2) Open field tomatoes (Lycopersicon esculentum, variety incas) were grown on sandy soil with a natural root-knot nematode (Meloidogyne spp) population. Soil samples, collected prior to planting, contained on average 113 J2 juveniles per 100 g soil. A program of 5 applications with intervals of about 14 days was started two days after transplantation.
(§3) An experimental pattern at Complete Randomized Blocks with four replicas was adopted. Besides the experimental products, each test also included an untreated control and a treatment with the standard commercial product VYDATE 10L (10%) applied in accordance to label instructions.
The read-outs are the average yield of the marketable tomatoes per plant (Table 7). The level of nematode attack of the root system at the time of harvesting was assessed by means of the lamberti scoring.

[6] = tested on: root-knot nematode (Meloidogyne spp); experiment: Nematicide field trial on cucumber: root galling and yield; conditions: for Average root galling: 0-5 Lamberti scale
Procedure: as §2, with “ground grown cucumber (Cucumis sativus cv Carine)” for “field tomatoes (Lycopersicon esculentum, variety incas)”, “8” for “113”, “4” for “5”, “six” for “two”
as §3
[…] The level of nematode attack of the root system at the time of harvesting was assessed by means of the lamberti scoring.

[7] = tested on: Meloidogyne nematodes; experiment: Pot Assay 2: Meloidogyne infection of tomato, % infestation of roots; conditions: RATE 1 mg; tomato in infested soil
Procedure: The soil used in this assay originated from a plot, heavily infested with Meloidogyne nematodes. Part of this soil was sterilized by autoclaving and was used as negative control. Sandy soil, which was not infested with nematodes, was pursued from a commercial source.
Plastic seedling trays with wells of 60 ml capacity were filled with about 40 ml of soil per well. 5 ml of water per well was used for irrigation.
Compounds as described herein were tested in 4 different rates and with 12 replicates for each concentration. The compounds as described herein were stored as dry films of 4 different concentrations. The day of the application of the compounds, all the dry films were dissolved in 60 ml water and poured into the 12 replicate wells: 5 ml per well. Every tray of 12 wells was identified with a label, indicating compound and concentration used. The 4 final rates in the soil of the tested compound were approximately 0.05 mg, 0.20 mg, 1 mg and 5 mg. These amounts translate to field application rates respectively as 30, 120, 600 and 3000 g per hectare.
3-5 days after application of the tested compound, tomato seeds (cv. Rio Grande) were sown in the wells by hand, at about 2 cm deep. A light cover of vermiculite on the surface was used to avoid dehydration. Plants were irrigated by micro-nebulization 3-4 times per week at a rate of 3 L/m^2, weeded by hand and treated with fertilizers, fungicide and insecticides when needed.
Their resistance against nematode infection was monitored and the efficacy of compounds described herein as a nematicide was measured. Furthermore the phytotoxicity of the test compounds was evaluated.
Efficacy of the compounds described herein as nematicide was measured by giving the roots a percentage of infestation measured as follows. Plants were grown to reach good development of the roots, which corresponds to plants grown to about 10 cm high at about one month after emergence. After removal of the soil from the roots by rinsing with water, the roots were visually inspected and root galls were counted on 4 plants of the set of 12 replicate plants.
Positive control plants were treated with a 10 micromolar concentration of oxamyl (Vydate, 10% SL; the rate of 10 micromolar corresponds to a commercial rate of 20 l/ha), a known nematicide. Negative controls involved double negative controls (no compound, sterile soil), and single negative controls (no compound, with nematode infested soil).

[8] = tested on: tomato (cv. Rio Grande); experiment: Pot Assay 2: root development (vigor of roots) of tomato; conditions: RATE 1 mg; visual value 0 to 10 (10 equal to control)
Procedure: Phytotoxicity of compounds as described herein when used as a nematicide, was measured as follows. […] At that moment, plant emergence was assessed for the plants treated with any of the compounds as described herein, by counting the number of plants per compound-concentration.
Vigor of roots was also assessed once the plants are well established so as not to loose plants. To assess vigor of the plants or roots, a visual value ranging from 0 to 10 (0 no vigor, 10 equal to control) was scored per compound-concentration.

[9] = Product Rate 1 (footnote g ai/ha)
[10] = Product Rate 2 (footnote g ai/ha)
[11] = Product Rate 4 (footnote g ai/ha)
[12] = Product Rate 8 (footnote g ai/ha)

Compound	Root knot count, average of the replicate counts [1]	number of egg masses (galls) on roots, Replicate 2 ([2]; 10 μM)	number of egg masses (galls) on roots, Replicate 2 ([2]; 50 μM)	number of egg masses (galls) on roots, Replicate 3 ([2]; 50 μM)	crop height (cm) ([3]; Rate 0.05 mg)	crop vigor (max 100%) ([3]; Rate 0.05 mg)	# crops emerged (max 18) ([4]; Rate 0.05 mg)	number of egg masses (galls) on roots, Replicate 1 ([2]; 10 μM)	Average yield of marketable fruits ([6]; Product Rate 500 g ai/ha)	Average root galling ([6]; Product Rate 500 g ai/ha)	other results
c1coc(-c2nc3ccccc3[nH]2)c1 [XVI]	14.5	50	40	15	13 cm	90%	18				
CC(C)NC(=O)N1CC(=O)N(c2cc(Cl)cc(Cl)c2)C1=O [XXV]	17	50	25	20				50	6.7 kg/plant/pot	2.75	number of egg masses (galls) on roots, Replicate 1 ([2]; 50 μM): 30; Average yield of marketable fruits [5, 9]: 1.45 kg/plant/pot; Average root galling [5, 9]: 1.8; Average yield of marketable fruits [5, 10]: 1.33 kg/plant/pot; Average root galling [5, 10]: 1.3; Average yield of marketable fruits ([6]; Product Rate 1500 g ai/ha): 9.1 kg/plant/pot; Average root galling ([6]; Product Rate 1500 g ai/ha): 1.75
CC(C)[C@@H](Nc1ccc(C(F)(F)F)cc1Cl)C(=O)OC(C#N)c1cccc(Oc2ccccc2)c1 (some centres unmarked) [XXXVI]	0				9 cm	70%	18		9.6 kg/plant/pot	1.63	crop height (cm) ([3]; Rate 0.2 mg): 14 cm; crop vigor (max 100%) ([3]; Rate 0.2 mg): 100%; crop height (cm) ([3]; Rate 1 mg): 15 cm; crop vigor (max 100%) ([3]; Rate 1 mg): 100%; crop height (cm) ([3]; Rate 5 mg): 13 cm; crop vigor (max 100%) ([3]; Rate 5 mg): 90%; # crops emerged (max 18) ([4]; Rate 0.2 mg): 18; # crops emerged (max 18) ([4]; Rate 1 mg): 18; # crops emerged (max 18) ([4]; Rate 5 mg): 18; Average yield of marketable fruits [5, 11]: 1.43 kg/plant/pot; Average root galling [5, 11]: 1.8; Average yield of marketable fruits [5, 12]: 1.26 kg/plant/pot; Average root galling [5, 12]: 1.8; Average yield of marketable fruits ([6]; Product Rate 250 g ai/ha): 9.3 kg/plant/pot; Average root galling ([6]; Product Rate 250 g ai/ha): 1.88
CC1COC(Cn2cncn2)(c2ccc(Oc3ccc(Cl)cc3)cc2Cl)O1 (mixture of isomers) [XLIX]	19.25	60	60	10				70			number of egg masses (galls) on roots, Replicate 3 ([2]; 10 μM): 40; % INF. (% Infestation) [7]: 0.0%; ROOT DEV. [8]: 7.9
COC(=O)c1sccc1S(=O)(=O)NC(=O)Nc1nc(C)nc(OC)n1 [XL]	0				12 cm	90%					
